# Assay results as given in patent US10544106B2, “Certain chemical entities, compositions, and methods” (NeuPharma, Inc., priority 2016, dated 2020).
# Target: BTK (Homo sapiens (Human), UniProt Q06187)
# Assay: Z'-LYTE kinase inhibition assay against BTK
# Format: biochemical
# Settings: compound at 100 nM; ATP concentration at Km
# Procedure: Inhibitory activities of compounds against BTK, EGFR T790M, EGFR L858R, and EGFR L858R/T790M were measured using Z′-LYTE® Method from Life Technologies as briefly described in the following.
# Test Compounds are screened in 1% DMSO (final) in the well. For 10 point titrations, 3-fold serial dilutions are conducted from the starting concentration. All ATP Solutions are diluted to a 4× working concentration in Kinase Buffer (50 mM HEPES pH 7.5, 0.01% BRIJ-35, 10 mM MgCl2, 1 mM EGTA). Peptide/Kinase Mixtures are diluted to a 2× working concentration in the appropriate Kinase Buffers as described below. • (i) Peptide/Kinase Mixtures for measurement of EGFR (ErbB1) L858R: • The 2×EGFR (ErbB1) L858R/Tyr 04 mixture is prepared in 50 mM HEPES pH 7.5, 0.01% BRIJ-35, 10 mM MgCl2, 4 mM MnCl2. 1 mM EGTA, 2 mM DTT. The final 10 μL Kinase Reaction consists of 0.2-1.68 ng EGFR (ErbB1) L858R and 2 μM Tyr 04 in 50 mM HEPES pH 7.5, 0.01% BRIJ-35, 10 mM MgCl2, 2 mM MnCl2, 1 mM EGTA, 1 mM DTT. After the 1 hour Kinase Reaction incubation, 5 μL of a 1:64 dilution of Development Reagent B is added. • (ii) Peptide/Kinase Mixtures for measurement of EGFR (ErbB1) T790M: The 2×EGFR (ErbB1) T790M/Tyr 04 mixture is prepared in 50 mM HEPES pH 6.5, 0.01% BRIJ-35, 10 mM MgCl2, 1 mM EGTA, 0.02% NaN3. The final 10 μL Kinase Reaction consists of 3.9-30.2 ng EGFR (ErbB1) T790M and 2 μM Tyr 04 in 50 mM HEPES pH 7.0, 0.01% BRIJ-35, 10 mM MgCl2, 1 mM EGTA, 0.01% NaN3. After the 1 hour Kinase Reaction incubation, 5 μL of a 1:64 dilution of Development Reagent B is added. • (iii) Peptide/Kinase Mixtures for measurement of EGFR (ErbB1) L858R/T790M: The 2×EGFR (ErbB1) T790M L858R/Tyr 04 mixture is prepared in 50 mM HEPES pH 6.5, 0.01% BRIJ-35, 10 mM MgCl2, 1 mM EGTA, 0.02% NaN3. The final 10 μL Kinase Reaction consists of 0.38-4.22 ng EGFR (ErbB1) T790M L858R and 2 μM Tyr 04 in 50 mM HEPES pH 7.0, 0.01% BRIJ-35, 10 mM MgCl2, 1 mM EGTA, 0.01% NaN3. After the 1 hour Kinase Reaction incubation, 5 μL of a 1:64 dilution of Development Reagent B is added. • (iv) Peptide/Kinase Mixtures for measurement of BTK: The 2×BTK/Tyr 01 mixture is prepared in 50 mM HEPES pH 7.5, 0.010/BRIJ-35, 10 mM MgCl2, 1 mM EGTA. The final 10 μL Kinase Reaction consists of 1.04-10.4 ng BTK and 2 μM Tyr 01 in 50 mM HEPES pH 7.5, 0.01% BRIJ-35, 10 mM MgCl2, 1 mM EGTA. After the 1 hour Kinase Reaction incubation, 5 μL of a 1:256 dilution of Development Reagent B is added.
# Reaction starts by 30-second shaking of mixture consisting of 2.5 μL 4× test compound, 5 μL 2× kinase reaction mixture and 2.5 μL 4×ATP Solution on Bar-coded Corning, low volume NBS, black 384-well plate (Corning Cat. #3676). Then the mixture is incubated for 60-minute at room temperature for the kinase reaction, followed by addition of 5 μL of a 1:1024 dilution of development reagent A and 30-second plate shake. The mixture is then incubated for another 60-minute at room temperature for development reaction. Finally fluorescence is read by plate reader.
# The Z′-LYTE assay was carried out with ATP concentration at Km. The scale utilized in Tables 2-6 is as follows: ++ more than 50% inhibition and + less than 50% inhibition.
# To determine IC50 of a compound against a kinase, a series of concentrations of the compound were tested for the inhibition. IC50 was calculated by plotting the concentration of compound vs the percentage of inhibition in treated wells using GraphPad Prism 5. […] The scale utilized in Table 7 is as follows: ++ less than 100 nM and + greater than 100 nM.
# BTK, sequence (Q06187 whole entry): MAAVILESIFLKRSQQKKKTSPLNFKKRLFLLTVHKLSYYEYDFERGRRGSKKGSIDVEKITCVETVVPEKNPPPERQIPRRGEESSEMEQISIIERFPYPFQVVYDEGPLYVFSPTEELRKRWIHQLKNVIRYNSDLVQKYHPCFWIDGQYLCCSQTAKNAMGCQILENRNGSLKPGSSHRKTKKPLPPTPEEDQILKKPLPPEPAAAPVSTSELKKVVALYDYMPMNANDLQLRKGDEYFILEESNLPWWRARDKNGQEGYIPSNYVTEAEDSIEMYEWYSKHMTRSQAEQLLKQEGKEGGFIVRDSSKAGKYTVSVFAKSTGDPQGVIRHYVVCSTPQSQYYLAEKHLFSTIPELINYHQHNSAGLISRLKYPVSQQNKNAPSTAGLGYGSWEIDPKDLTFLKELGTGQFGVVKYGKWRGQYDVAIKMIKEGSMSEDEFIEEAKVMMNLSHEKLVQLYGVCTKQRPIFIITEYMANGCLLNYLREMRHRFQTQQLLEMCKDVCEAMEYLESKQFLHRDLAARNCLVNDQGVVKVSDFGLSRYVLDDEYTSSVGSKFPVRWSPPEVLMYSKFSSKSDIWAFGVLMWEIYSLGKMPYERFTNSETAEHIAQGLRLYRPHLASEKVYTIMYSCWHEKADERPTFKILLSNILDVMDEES
row,SMILES,inhibition at 0.1 µM [%]
1,"C=CC(=O)N1CCC(c2cc(-c3ccc(Oc4ccccc4)cc3)n3cnccc23)C1 (centres unmarked) [C063, 1-(3-(7-(4-phenoxyphenyl)pyrrolo[1,2-c]pyrimidin-5-yl)pyrrolidin-1-yl)prop-2-en-1-one]",> 50
2,"C=CC(=O)N1CCC(c2cc(-c3cncc(C(F)(F)F)c3)cc3cncnc23)C1 (centres unmarked) [C066, 1-(3-(6-(5-(trifluoromethyl)pyridin-3-yl)quinazolin-8-yl)pyrrolidin-1-yl)prop-2-en-1-one]",< 50
3,"C=CC(=O)N1CCC(c2cc(-c3ccc(C(=O)Nc4ccccn4)cc3Cl)cc3cncnc23)C1 (centres unmarked) [C067, 4-(8-(1-acryloylpyrrolidin-3-yl)quinazolin-6-yl)-3-chloro-N-(pyridin-2-yl)benzamide]",> 50
4,"C=CC(=O)N1CCC(c2cc(-c3ccc(C(=O)Nc4cccc(C(F)(F)F)c4)cc3)cc3cncnc23)C1 (centres unmarked) [C068, 4-(8-(1-acryloylpyrrolidin-3-yl)quinazolin-6-yl)-N-(3-(trifluoromethyl)phenyl)benzamide]",< 50
5,"C=CC(=O)Nc1cccc(-c2cc(-c3ccc(C(=O)Nc4ccccn4)nc3)cc3cncnc23)c1 [C069, 5-(8-(3-acrylamidophenyl)quinazolin-6-yl)-N-(pyridin-2-yl)picolinamide]",> 50
6,"C=CC(=O)Nc1cccc(-c2cc(-c3ccc(C(=O)Nc4cccc(C)c4)nc3)cc3cncnc23)c1 [C070, 5-(8-(3-acrylamidophenyl)quinazolin-6-yl)-N-(m-tolyl)picolinamide]",< 50
7,"C=CC(=O)Nc1cccc(-c2cc(-c3ccc(C(=O)Nc4cccc(C(F)(F)F)c4)nc3)cc3cncnc23)c1 [C071, 5-(8-(3-acrylamidophenyl)quinazolin-6-yl)-N-(3-(trifluoromethyl)phenyl)picolinamide]",> 50
8,"C=CC(=O)Nc1cccc(-c2cc(-c3ccc(Oc4ccc(Cl)cc4)nc3)cc3cncnc23)c1 [C072, N-(3-(6-(6-(4-chlorophenoxy)pyridin-3-yl)quinazolin-8-yl)phenyl)acrylamide]",< 50
9,"C=CC(=O)Nc1cccc(-c2cc(-c3ccccc3C#N)cc3cncnc23)c1 [C075, N-(3-(6-(2-cyanophenyl)quinazolin-8-yl)phenyl)acrylamide]",> 50
10,"C=CC(=O)N1CCC(c2cc(-c3ccc(Oc4ccccc4)nc3)cc3cncnc23)C1 (centres unmarked) [C077, 1-(3-(6-(6-phenoxypyridin-3-yl)quinazolin-8-yl)pyrrolidin-1-yl)prop-2-en-1-one]",< 50
11,"C=CC(=O)N1CCC(c2cc(-c3ccc(Oc4ccccc4)cc3)cc3cnc(N)nc23)C1 (centres unmarked) [C078, 1-(3-(2-amino-6-(4-phenoxyphenyl)quinazolin-8-yl)pyrrolidin-1-yl)prop-2-en-1-one]",> 50
12,"C=CC(=O)N1CCC(c2cc(-c3ccc(C(=O)Nc4ccccn4)cc3)cc3cncnc23)C1 (centres unmarked) [C079, 4-(8-(1-acryloylpyrrolidin-3-yl)quinazolin-6-yl)-N-(pyridin-2-yl)benzamide]",< 50
13,"C=CC(=O)N1CCC(c2cc(-c3ccc(C(=O)Nc4cccc(C)c4)nc3)cc3cncnc23)C1 (centres unmarked) [C080, 5-(8-(1-acryloylpyrrolidin-3-yl)quinazolin-6-yl)-N-(m-tolyl)picolinamide]",< 50
14,"C=CC(=O)Nc1cccc(-c2cc(-c3ccc(Oc4cccc(C(F)(F)F)c4)nc3)cc3cncnc23)c1 [C081, N-(3-(6-(6-(3-(trifluoromethyl)phenoxy)pyridin-3-yl)quinazolin-8-yl)phenyl)acrylamide]",> 50
15,"C=CC(=O)N1CCC(c2cc(-c3ccc(Oc4cccc(C(F)(F)F)c4)nc3)cc3cncnc23)C1 (centres unmarked) [C082, 1-(3-(6-(6-(3-(trifluoromethyl)phenoxy)pyridin-3-yl)quinazolin-8-yl)pyrrolidin-1-yl)prop-2-en-1-one]",< 50
16,"C=CC(=O)N1CCC(c2cc(-c3ccccc3)cc3cnc(N)nc23)C1 (centres unmarked) [C083, 1-(3-(2-amino-6-phenylquinazolin-8-yl)pyrrolidin-1-yl)prop-2-en-1-one]",< 50
17,"C=CC(=O)N1CCC(c2cc(-c3ccccc3F)cc3cncnc23)C1 (centres unmarked) [C084, 1-(3-(6-(2-fluorophenyl)quinazolin-8-yl)pyrrolidin-1-yl)prop-2-en-1-one]",< 50
18,"C=CC(=O)N1CCC(c2cc(-c3ccccc3F)cc3cnc(N)nc23)C1 (centres unmarked) [C085, 1-(3-(2-amino-6-(2-fluorophenyl)quinazolin-8-yl)pyrrolidin-1-yl)prop-2-en-1-one]",< 50
19,"C=CC(=O)Nc1cccc(-c2cc(-c3ccc(Oc4cccc(F)c4)nc3)cc3cncnc23)c1 [C086, N-(3-(6-(6-(3-fluorophenoxy)pyridin-3-yl)quinazolin-8-yl)phenyl)acrylamide]",> 50
20,"C=CC(=O)Nc1cccc(-c2cc(-c3ccc(C(=O)Nc4ccccn4)cc3F)cc3cncnc23)c1 [C087, 4-(8-(3-Acrylamidophenyl)quinazolin-6-yl)-3-fluoro-N-(pyridin-2-yl)benzamide]",< 50
21,"C=CC(=O)Nc1cccc(-c2cc(-c3ccc(Oc4cc(C(F)(F)F)ccn4)cc3Cl)cc3cncnc23)c1 [C088, N-(3-(6-(2-chloro-4-((4-(trifluoromethyl)pyridin-2-yl)oxy)phenyl)quinazolin-8-yl)phenyl)acrylamide]",> 50
22,"C=CC(=O)Nc1cccc(-c2cc(-c3ccc(C(=O)Nc4ccccc4)cc3F)cc3cncnc23)c1 [C089, 4-(8-(3-Acrylamidophenyl)quinazolin-6-yl)-3-fluoro-N-phenylbenzamide]",> 50
23,"C=CC(=O)N1CCC(c2cc(-c3ccc(Oc4cc(C(F)(F)F)ccn4)cc3F)cc3cncnc23)C1 (centres unmarked) [C090, 1-(3-(6-(2-Fluoro-4-((4-(trifluoromethyl)pyridin-2-yl)oxy)phenyl)quinazolin-8-yl)pyrrolidin-1-yl)prop-2-en-1-one]",< 50
24,"C=CC(=O)Nc1cccc(-c2cc(-c3ccccc3C#N)cc3cnc(N)nc23)c1 [C091, N-(3-(2-amino-6-(2-cyanophenyl)quinazolin-8-yl)phenyl)acrylamide]",> 50
25,"C=CC(=O)Nc1cccc(-c2cc(-c3ccc(C(=O)Nc4cccc(F)c4)nc3)cc3cncnc23)c1 [C092, 5-(8-(3-acrylamidophenyl)quinazolin-6-yl)-N-(3-fluorophenyl)picolinamide]",> 50
26,"C=CC(=O)N1CCC(c2cc(-c3ccc(C(=O)Nc4cccc(C(F)(F)F)c4)nc3)cc3cncnc23)C1 (centres unmarked) [C093, 5-(8-(1-acryloylpyrrolidin-3-yl)quinazolin-6-yl)-N-(3-(trifluoromethyl)phenyl)picolinamide]",< 50
27,"C=CC(=O)N1CCC(c2cc(-c3ccc(C(=O)Nc4ccccn4)cc3F)cc3cncnc23)C1 (centres unmarked) [C094, 4-(8-(1-acryloylpyrrolidin-3-yl)quinazolin-6-yl)-3-fluoro-N-(pyridin-2-yl)benzamide]",< 50

# Same assay, conditions: series of concentrations; GraphPad Prism 5
row,SMILES,IC50 [nM]
1,"C=CC(=O)N1CCC(c2cc(-c3ccc(C(=O)Nc4ccccn4)cc3Cl)cc3cncnc23)C1 (centres unmarked) [C067, 4-(8-(1-acryloylpyrrolidin-3-yl)quinazolin-6-yl)-3-chloro-N-(pyridin-2-yl)benzamide]",< 100
2,"C=CC(=O)Nc1cccc(-c2cc(-c3ccccc3C#N)cc3cncnc23)c1 [C075, N-(3-(6-(2-cyanophenyl)quinazolin-8-yl)phenyl)acrylamide]",< 100
3,"C=CC(=O)N1CCC(c2cc(-c3ccc(Oc4ccccc4)cc3)cc3cnc(N)nc23)C1 (centres unmarked) [C078, 1-(3-(2-amino-6-(4-phenoxyphenyl)quinazolin-8-yl)pyrrolidin-1-yl)prop-2-en-1-one]",< 100
4,"C=CC(=O)Nc1cccc(-c2cc(-c3ccc(Oc4cccc(F)c4)nc3)cc3cncnc23)c1 [C086, N-(3-(6-(6-(3-fluorophenoxy)pyridin-3-yl)quinazolin-8-yl)phenyl)acrylamide]",< 100
5,"C=CC(=O)Nc1cccc(-c2cc(-c3ccccc3C#N)cc3cnc(N)nc23)c1 [C091, N-(3-(2-amino-6-(2-cyanophenyl)quinazolin-8-yl)phenyl)acrylamide]",< 100
